Tests used:
[1] = system: C. albicans (strain SC-5134); test: FITC-labeled Annexin V staining of protoplasts (phosphatidylserine externalization); type: cell-based, Candida albicans; conditions: 1.0 μM Pc 4-PDT, 2.0 J/cm^2, within 4 to 5 hours of PDT
Experimental: Cells were then incubated for 4 hr before staining with FITC-labeled Annexin V. FIG. 4(a) provides confocal images of FITC-labeling of cells that had been treated with H2O2 or Pc 4-PDT. Scale bar, 20 μm. FIG. 4(b) provides a bar graph showing the results. For each experiment over 50-100 protoplasts cells were counted per sample. […] Cells were counted by eye using a Zeiss AxiovertTM S100 inverted epifluorescence microscope. Values represent the mean±S.E. from at least three independent experiments. […] Apoptosis Analyses: (A) FITC-labeled Annexin V staining-To assess the externalization of phosphatidylserine, protoplasts of C. albicans were stained with FITC-labeled Annexin V using the Annexin V-FLUOS staining kit (Roche, Germany) with minor modifications. Madeo et al., J Cell Biol 139:729-734 (1997); Park et al., Biochem Biophys Res Commun 394:170-172 (2010). Briefly, control and treated cells were washed three times with 1× PBS before incubating at 37° C. for 30 min in a protoplasting solution (50 mM KH2PO4, 5 mM EDTA and 50 mM DTT). Then cells were digested at 37° C. for 45 min in an enzyme solution (50 mM K2HPO4, 40 mM 2-mercaptoethanol, 3 μg/mL Chitinase, 1.8 μg/mL […], 0.15 mg/mL Zymolyase and 2.4 M sorbitol). 1× PBS was added to each sample and incubated for 30 min at room temperature in all experiments. Protoplasts were then incubated with 100 μL of Annexin V-FLUOS labeling solution for 15 min at 25° C. FITC-labeled Annexin V fluorescence was detected by both widefield (Leica DMI6000B microscope; Leica Microsystems, Inc., Bannockburn, Ill., USA) and confocal fluorescence microscopy.

[2] = system: C. albicans (strain SC-5134); test: FUN-1 fluorescence metabolic activity assay (confocal); type: cell-based, Candida albicans; conditions: 1.0 μM Pc 4, 2.0 J/cm^2, vs cells exposed to Pc 4 but not irradiated
Experimental: Pc 4-Photodynamic Treatment Conditions: The phthalocyanine photosensitizer Pc 4 was kindly provided by Dr. Malcolm E. Kenney (Department of Chemistry, Case Western Reserve University, Cleveland, Ohio, USA). Stock solutions (0.5 mM) of Pc 4 were prepared in N′,N′-dimethylformamide (DMF, ThermoFisher, Waltham, Mass., USA) and stored at 4° C. in the dark. C. albicans cultures were incubated with Pc 4 concentrations ranging from 0.1 to 1.0 μM in 1× PBS containing 10% FBS for at least 1 hr at 37° C. in the dark and subsequently irradiated with red light using a light-emitting diode array (EFOS, Mississauga, Ontario, Canada) at a fluence ranging from 1.0 to 2.0 J/cm^2 (1.0 mW/cm^2, λmax ˜670-675 nm) at room temperature. […] The absorbance of the resulting orange solution was measured using a spectrophotometer (Spectronic Genesys 5, Analytical Instrument, Golden Valley, Minn., USA) at 492 nm. […] FUN-1 fluorescence was excited using solid state diode lasers (488 nm) and collected with a 580-650 nm band pass emission filter.

[3] = system: T. rubrum; test: Turbidity growth assay of microconidia after Pc 4-PDT; type: cell-based, Trichophyton rubrum; conditions: Pc 4 up to 2 μM, 2.0 J/cm^2
Experimental: Terbinafine sensitive (23013) and resistant (MRL666) strains of T. rubrum were grown onto Sabouraud potato agar plate for at least 24 hours at 28° C. Microconidia were separated from most of the hyphae form before treating with Pc 4-PDT.

**Q.** `CN(C)CCC[Si](C)(C)O[Si]1(O)n2c3c4ccccc4c2N=C2N=C(N=c4c5ccccc5c(n41)=NC1=NC(=N3)c3ccccc31)c1ccccc12` (stereo not shown) [Pc 4, HOSiPcOSi(CH3)2(CH2)3N(CH3)2] was tested. Which “Annexin V positive cells” value [1] did it give?
**A.** The value was 20%.

**Q.** And the FUN-1 fluorescence [2]?
**A.** The FUN-1 fluorescence was “much reduced FUN-1 fluorescence”.

**Q.** And the growth of microconidia ([3]; terbinafine resistant strain MRL666)?
**A.** Its growth of microconidia is “inhibited by Pc 4-PDT in a dose response fashion”.

**Q.** And the growth of microconidia ([3]; terbinafine sensitive strain 23013)?
**A.** The growth of microconidia was “inhibited by Pc 4-PDT in a dose response fashion”.
